# In PubChem BioAssay AID2060494 (Molecular Pharmacology Branch, DTP, NCI, 2025):
# Tested on: 435261-313-R-J1-PDC complex spheroid viability
# Assay: Anticancer human tumor 435261-313-R-J1-PDC patient-derived colon adenocarcinoma cell line growth inhibition [GQUAD]
# Settings: for IC50: curve of first compound; for viability, T/C: stronger effect = lower value
# From the text: DNA G-quadruplex Stabilizer Agents in Combinations in Complex Spheroids
# A high-throughput screen of multi-cell type tumor spheroids was designed to identify active combinations of DNA G-quadruplex stabilizer agents and targeted small molecules. Complex spheroids include a stromal component modeled by human endothelial cells (HUVEC) and fibroblasts modeled by human mesenchymal stem cells (MSCs). The concentration ranges selected for each drug and investigational agent were based upon clinically achievable concentrations if the clinical Cmax of the agent was known.
# Compounds. The drugs and investigational agents: pidnarulex (CX-5461; NSC782164), APTO-253 (NSC789042), BRACO-19 (NSC847499), peposertib (NSC802822), ceralasertib (NSC780249), elimusertib (NSC800525), camonsertib (NSC841442), AZD-1390 (NSC803789), olaparib (NSC753686), talazoparib (NSC767125), ART-558 (NSC835418), sotorasib (NSC818433), MRTX-1133 (NSC836407), SN-38 (NSC673596), topotecan (NSC609699), etoposide (NSC141540), doxorubicin (NSC123127), gemcitabine (NSC613327), 5-fluorouracil (NSC19893), paclitaxel (NSC125973), vemurafenib (NSC761431), panobinostat (NSC761190), R-306465 (JNJ-16241199; NSC773264), adavosertib (NSC754352), TP-3654 (NSC805149), carboplatin (NSC241240), KSQ-4279 (NSC840948), and staurosporine (NSC755774) were obtained from the National Cancer Institute (NCI) Developmental Therapeutics Program Chemical Repository (34). The FDA-approved anticancer drug set is available from the NCI Developmental Therapeutics Program. […] The stock solutions were prepared in dimethyl sulfoxide (DMSO, Sigma-Aldrich, St. Louis, MO, cat. D2650) at 800-fold the tested concentration and stored at -70 degrees C prior to their use. All drugs and investigational agents were tested over a range starting from a high concentration at or near the clinical Cmax and decreasing in half-log increments. If the clinical Cmax for an agent had not been determined, the highest concentration tested was 10 microM.
# 2.3 Cell Culture. All cells were maintained in an incubator at 37 degrees C and 5% CO2 with 95% humidity. The PDC lines were cultured according to standard operating procedures established by the NCI PDMR. All PDCs were thawed and cultured in Matrigel-coated flasks prepared with a working solution of 1X Ham's F-12 nutrient mix, without supplementation (Invitrogen, cat. 11765054), 100 U/mL penicillin-streptomycin (Invitrogen, cat. 15140122), and 2.5% Matrigel (Corning Inc., cat. 354248) for the first three passages. The 857933-349-R-J2-PDC line was cultured in 6C/Colon 1B media, which includes advanced DMEM/F-12 (Thermo Fisher Scientific, cat. 12634028), 10 mM HEPES (Thermo Fisher Scientific, cat. 15630080), 1X GlutaMAX supplement (Thermo Fisher Scientific, cat. 35050061), 0.1 mg/mL primocin (InvivoGen, cat. ant-pm-2), 10% defined fetal bovine serum, heat inactivated (HyClone Laboratories Inc., cat. SH30070.03HI), 50% L-WRN conditioned media (ATCC, cat. CRL-3276), 1.25 mM N-Acetyl-L-cysteine (Sigma-Aldrich, cat. A9165), 10 mM nicotinamide (Sigma-Aldrich, cat. N0636), 1X B-27 supplement (Thermo Fisher Scientific, cat. 17504044), 1X N-2 supplement (Thermo Fisher Scientific, cat. 17502048), 10 microM Y-27632 dihydrochloride (Tocris Bioscience, cat. 1254), and 50 ng/mL human EGF recombinant protein (Thermo Fisher Scientific, cat. PHG0311). The 485176-168-R4-J1-PDC line was cultured in Panc media, which includes all 6C/Colon 1B media components plus 100 ng/mL human FGF-10 (Thermo Fisher Scientific, cat. 100-26), 500 nM SB-431542 (Selleckchem, cat. S1067), and gastrin (Tocris, cat. 3006).
# […]
# [1] = second compound 0.0316 µM, first compound 0.0316 µM
# [2] = second compound 0.0316 µM, first compound 0.1 µM
# [3] = second compound 0.0316 µM, first compound 0.316 µM
# [4] = second compound 0.0316 µM, first compound 1 µM
# [5] = second compound 0.0316 µM, first compound 3.16 µM
# [6] = second compound 0.0316 µM, first compound 10 µM
# [7] = second compound 0.1 µM, first compound 0.0316 µM
# [8] = second compound 0.1 µM, first compound 0.1 µM
# [9] = second compound 0.1 µM, first compound 0.316 µM
# [10] = second compound 0.1 µM, first compound 1 µM
# [11] = second compound 0.1 µM, first compound 3.16 µM
# [12] = second compound 0.1 µM, first compound 10 µM
# [13] = second compound 0.316 µM, first compound 0.0316 µM
# [14] = second compound 0.316 µM, first compound 0.1 µM
# [15] = second compound 0.316 µM, first compound 0.316 µM
# [16] = second compound 0.316 µM, first compound 1 µM
# [17] = second compound 0.316 µM, first compound 3.16 µM
# [18] = second compound 0.316 µM, first compound 10 µM
# [19] = second compound 1 µM, first compound 0.0316 µM
# [20] = second compound 1 µM, first compound 0.1 µM
# [21] = second compound 1 µM, first compound 0.316 µM
# [22] = second compound 1 µM, first compound 1 µM
# [23] = second compound 1 µM, first compound 3.16 µM
# [24] = second compound 1 µM, first compound 10 µM
# [25] = second compound 3.16 µM, first compound 0.0316 µM
# [26] = second compound 3.16 µM, first compound 0.1 µM
# [27] = second compound 3.16 µM, first compound 0.316 µM
# [28] = second compound 3.16 µM, first compound 1 µM
# [29] = second compound 3.16 µM, first compound 3.16 µM
# [30] = second compound 3.16 µM, first compound 10 µM
# [31] = second compound 10 µM, first compound 0.0316 µM
# [32] = second compound 10 µM, first compound 0.1 µM
# [33] = second compound 10 µM, first compound 0.316 µM
# [34] = second compound 10 µM, first compound 1 µM
# [35] = second compound 10 µM, first compound 3.16 µM
# [36] = second compound 10 µM, first compound 10 µM
# 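Also: spheroids exposed to the agents for seven days before readout.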
# 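For viability, T/C in this document: percent of vehicle control viability with DMSO wells as 100%.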
smiles,measurement,setting,value
CCCS(=O)(=O)Nc1ccc(F)c(C(=O)c2c[nH]c3ncc(-c4ccc(Cl)cc4)cc23)c1F + Cc1[nH]c2ccc(F)cc2c1-c1nc2c3cccnc3c3ncccc3c2[nH]1,IC50,second compound 0.0316 µM,5200 nM
same,IC50,second compound 0.1 µM,4080 nM
same,IC50,second compound 0.316 µM,4060 nM
same,IC50,second compound 1 µM,3250 nM
same,IC50,second compound 3.16 µM,< 31.6 nM
same,IC50,second compound 10 µM,< 31.6 nM
same,"viability, T/C",[1],77.2%
same,"viability, T/C",[2],87.3%
same,"viability, T/C",[3],109%
same,"viability, T/C",[4],115%
same,"viability, T/C",[5],78.5%
same,"viability, T/C",[6],12.7%
same,"viability, T/C",[7],60.5%
same,"viability, T/C",[8],105%
same,"viability, T/C",[9],116%
same,"viability, T/C",[10],70.9%
same,"viability, T/C",[11],62.2%
same,"viability, T/C",[12],15.5%
same,"viability, T/C",[13],66.5%
same,"viability, T/C",[14],73.7%
same,"viability, T/C",[15],76.7%
same,"viability, T/C",[16],70%
same,"viability, T/C",[17],59.9%
same,"viability, T/C",[18],14%
same,"viability, T/C",[19],41.2%
same,"viability, T/C",[20],70%
same,"viability, T/C",[21],40.5%
same,"viability, T/C",[22],55.5%
same,"viability, T/C",[23],50.8%
same,"viability, T/C",[24],11.7%
same,"viability, T/C",[25],30.2%
same,"viability, T/C",[26],29.2%
same,"viability, T/C",[27],24.5%
same,"viability, T/C",[28],19.6%
same,"viability, T/C",[29],28.4%
same,"viability, T/C",[30],7.37%
same,"viability, T/C",[31],27.2%
same,"viability, T/C",[32],23%
same,"viability, T/C",[33],24.6%
same,"viability, T/C",[34],27.1%
same,"viability, T/C",[35],26.1%
same,"viability, T/C",[36],8.52%
COc1ccc([C@@H](O)c2cc(-c3ncnc4cc(N5CCOCC5)ccc34)c(F)cc2Cl)nn1 + Cc1[nH]c2ccc(F)cc2c1-c1nc2c3cccnc3c3ncccc3c2[nH]1,IC50,second compound 0.0316 µM,1080 nM
same,IC50,second compound 0.1 µM,4220 nM
same,IC50,second compound 0.316 µM,3420 nM
same,IC50,second compound 1 µM,2810 nM
same,IC50,second compound 3.16 µM,< 31.6 nM
same,IC50,second compound 10 µM,< 31.6 nM
same,"viability, T/C",[1],88.7%
same,"viability, T/C",[2],64.5%
same,"viability, T/C",[3],88.6%
same,"viability, T/C",[4],50.8%
same,"viability, T/C",[5],44.5%
same,"viability, T/C",[6],30.4%
same,"viability, T/C",[7],99%
same,"viability, T/C",[8],97.6%
same,"viability, T/C",[9],106%
same,"viability, T/C",[10],70.2%
same,"viability, T/C",[11],62.7%
same,"viability, T/C",[12],24.5%
same,"viability, T/C",[13],63.4%
same,"viability, T/C",[14],99.4%
same,"viability, T/C",[15],70.5%
same,"viability, T/C",[16],87.9%
same,"viability, T/C",[17],51.8%
same,"viability, T/C",[18],25.2%
same,"viability, T/C",[19],67.8%
same,"viability, T/C",[20],65.3%
same,"viability, T/C",[21],82%
same,"viability, T/C",[22],45.2%
same,"viability, T/C",[23],55.4%
same,"viability, T/C",[24],20%
same,"viability, T/C",[25],45.2%
same,"viability, T/C",[26],30.1%
same,"viability, T/C",[27],35.5%
same,"viability, T/C",[28],36.4%
same,"viability, T/C",[29],13.6%
same,"viability, T/C",[30],10.9%
same,"viability, T/C",[31],19.8%
same,"viability, T/C",[32],21.9%
same,"viability, T/C",[33],27.1%
same,"viability, T/C",[34],18.7%
same,"viability, T/C",[35],13.2%
same,"viability, T/C",[36],8.61%
O=C(NO)c1cnc(N2CCN(S(=O)(=O)c3ccc4ccccc4c3)CC2)nc1 + Cc1[nH]c2ccc(F)cc2c1-c1nc2c3cccnc3c3ncccc3c2[nH]1,IC50,second compound 0.0316 µM,430 nM
same,IC50,second compound 0.1 µM,503 nM
same,IC50,second compound 0.316 µM,600 nM
same,IC50,second compound 1 µM,541 nM
same,IC50,second compound 3.16 µM,< 31.6 nM
same,IC50,second compound 10 µM,< 31.6 nM
same,"viability, T/C",[1],72.4%
same,"viability, T/C",[2],66.6%
same,"viability, T/C",[3],52.3%
same,"viability, T/C",[4],37.3%
same,"viability, T/C",[5],0.25%
same,"viability, T/C",[6],0.68%
same,"viability, T/C",[7],72.8%
same,"viability, T/C",[8],79.5%
same,"viability, T/C",[9],62%
same,"viability, T/C",[10],30.2%
same,"viability, T/C",[11],0.15%
same,"viability, T/C",[12],0.1%
same,"viability, T/C",[13],60.8%
same,"viability, T/C",[14],75.7%
same,"viability, T/C",[15],65.5%
same,"viability, T/C",[16],36.8%
same,"viability, T/C",[17],0.27%
same,"viability, T/C",[18],0.1%
same,"viability, T/C",[19],71%
same,"viability, T/C",[20],65.6%
same,"viability, T/C",[21],57.6%
same,"viability, T/C",[22],38.4%
same,"viability, T/C",[23],0.35%
same,"viability, T/C",[24],0.13%
same,"viability, T/C",[25],42.5%
same,"viability, T/C",[26],25.7%
same,"viability, T/C",[27],27%
same,"viability, T/C",[28],30.6%
same,"viability, T/C",[29],0.41%
same,"viability, T/C",[30],0.14%
same,"viability, T/C",[31],29.7%
same,"viability, T/C",[32],28.4%
same,"viability, T/C",[33],20.8%
same,"viability, T/C",[34],12.5%
same,"viability, T/C",[35],0.86%
same,"viability, T/C",[36],0.16%
